According to patent publication US5137711A, “Paramagnetic DTPA and EDTA alkoxyalkylamide complexes as MRI agents” (Mallickrodt Medical, Inc., priority 1989, dated 1992):

Test system: ICR mice
Assay: acute intravenous toxicity in ICR mice
Assay type: in vivo
Protocol: The acute intravenous toxicity of the compound of Example II was determined as follows: ICR mice, at 1 to 4 per dose level, received single intravenous injections of the test substance via a lateral tail vein at the rate of approximately 1 ml/minute. The test substances were at concentrations chosen to result in dose volumes of 5 to 75 ml/kg body weight. Dosing began at a volume of 10 ml/kg. Dose adjustments up or down were made to closely bracket the estimated LD50 with 4 animals per group (2 males and 2 females). Observations of the mice were recorded at times 0, 0.5, 1,2,4 and 24 hours and once daily thereafter for up to 7 days post injection. On the 7th day post injection, the mice were euthanized, weighed and necropsied. Abnormal tissues were noted. At this time a decision was made as to whether any histopathology was to be performed and whether or not the tissues should be retained. Necropsies were also performed on mice expiring after 24 hours post-injection, except for dead mice found on the weekends The LD50 values, along with 95% CI were calculated using a modified Behrens-Reed-Meunch method. The results for the complex of Example II are reported below:
Sex and Weight Range of Mice: Males(18.0-20.3 g) Females (19.0-21.7 g)

For COCCNC(=O)CN(CCN(CCN(CC(=O)[O-])CC(=O)NCCOC)CC(=O)[O-])CC(=O)[O-].[Gd+3] [Example II, {N,N"-Bis[N-(2-methoxyethyl)-carbamoylmethyl]diethylenetriamine-N,N',N"-triaceto} gadolinium (III)], the “Body weight of surviving mice” value (7-day post-injection period, i.v.) was “failed to gain weight” and the “i.v. toxicity (overall, in words)” value (preliminary tests, mice) was “low order of i.v. toxicity”.
